According to US7629379B2, “Substituted phosphonate fluorescent sensors and use thereof” (Queen Mary & Westfield College, priority 2003, dated 2009):
Counter-ions that a name gives are not always drawn.

Tests used:
[1] = system: Zn^+2 in fibrosarcoma cells; assay: Imaging of Zn^+2 in fibrosarcoma cells; format: cell-based; conditions: added to any of the wells with phosphonate and zinc

| melting point [°C] | SMILES | uptake into cells (Fibrosarcoma cells) | other results |
| --- | --- | --- | --- |
| 285 to 288 | O=P(O)(O)COc1cccc2cccnc12 (as salt: salt) [Example 2, 8-quinolyloxy methylphosphonic acid] | – | – |
| 291 | O=P(O)(O)COc1ccc2c(c1)[nH]c1ccccc12 [Example 9, 2-carbazolyloxymethyl phosphonic acid] | – | – |
| – | c1ccc(CN(CCN(Cc2ccccn2)Cc2ccccn2)Cc2ccccn2)nc1 [TPEN, N,N,N′,N′-tetrakis(2-pyridylmethyl)ethylenediamine] | – | effect of excess chelator on the cell fluorescence [1]: very significant quenching of the fluorescence |
| – | O=P([O-])([O-])Cn1c2ccccc2c2ccccc21.[Na+].[Na+] [di sodium N-carbazolylmethylphosphonate] | taken up in the cytoplasm within the fibrosarcoma cells | penetration of brain cell types and regions (Slices of rat brain): went into the endothelial and neuronal cells |
| – | Cc1cc(=O)oc2cc(OCP(=O)(O)O)ccc12 [di-sodium salt of Example 5, 4-methylcoumarin 7-oxymethylphosphonic acid] | taken up in the cytoplasm within the fibrosarcoma cells | – |

| SMILES | melting point [°C] | uptake into cells (Fibrosarcoma cells) | other results |
| --- | --- | --- | --- |
| CCOP(=O)(COc1ccc2c(c1)[nH]c1ccccc12)OCC [Example 8, diethyl-2-carbazolyloxymethylphosphonate] | 159 | taken up in the cytoplasm within the fibrosarcoma cells | – |
